The NIST ThermoML archive (doi:10.1021/je201140q)

Legend:
[1] = xn = mol fraction of the nth substance listed; conditions: for mass density: 298.15 K, 101.3 kPa, Liquid, Vibrating tube method; for surface tension liquid-gas: 303.15 K, Maximal bubble pressure
[2] = refractive index (Na D-line) (dimensionless); conditions: 298.15 K; 101.33 kPa; Liquid; Standard Abbe refractometry
[3] = for surface tension liquid-gas: 303.15 K, Maximal bubble pressure; for vapor or sublimation pressure / Normal boiling temperature: Ebulliometric method (Recirculating still)

CCO [ethanol] + C1CCOCC1
[1], x1 = 1
Conditions	mass density [kg/m3]	surface tension liquid-gas [mN/m]
–	785.11	21.7

CCO [ethanol]
Conditions	refractive index	surface tension liquid-gas [mN/m]
[2]	1.36068	–
[3]	–	21.7

[3], Liquid
Conditions	vapor or sublimation pressure [kPa]
334.57 K	50
344.02 K	75
349.56 K	94

Conditions	Normal boiling temperature [°C]
[3], Liquid	78.30

C1CCOCC1 [tetrahydropyran] + CCO
[1]
Conditions	mass density [kg/m3]	surface tension liquid-gas [mN/m]
x2 = 0	879.03	27.1
x2 = 0.03	877.14	–
x2 = 0.068	–	26.91
x2 = 0.115	871.86	–
x2 = 0.122	–	26.76
x2 = 0.193	866.85	–
x2 = 0.223	–	26.5
x2 = 0.299	859.54	–
x2 = 0.323	–	25.98
x2 = 0.42	–	25.34
x2 = 0.426	849.89	–
x2 = 0.496	844.01	–
x2 = 0.52	–	24.9
x2 = 0.599	834.65	–
x2 = 0.604	–	24.35
x2 = 0.622	–	24.24
x2 = 0.657	–	24.07
x2 = 0.707	–	23.81
x2 = 0.716	822.74	–
x2 = 0.722	–	23.64
x2 = 0.799	813.13	–
x2 = 0.821	–	23.01
x2 = 0.91	798.6	–
x2 = 0.918	–	22.42
x2 = 0.959	791.41	–
x2 = 0.963	–	22

C1CCOCC1 [tetrahydropyran]
Conditions	refractive index	surface tension liquid-gas [mN/m]
[2]	1.42	–
[3]	–	27.1

Conditions	mass density [kg/m3]
[3], 298.15 K, 101.3 kPa, Liquid, Vibrating tube method	879.03

[3], Liquid
Conditions	vapor or sublimation pressure [kPa]
312.59 K	18.01
319.62 K	24.01
325.36 K	30.01
331.7 K	38.01
336.4 K	45.01
339.33 K	50
339.98 K	51.01
344.26 K	59.01
347.64 K	66.01
350.74 K	73.01
351.53 K	75
353.61 K	80.01
356.29 K	87.01
358.81 K	94.01
358.85 K	94
361.55 K	102.11

Conditions	Normal boiling temperature [°C]
[3], Liquid	88.21
